From EP0006532A1, “Lactams, methods for their preparation, and medicaments containing them” (Dr. Karl Thomae GmbH, priority 1978, dated 1980)
In brackets after ≈: the same amount, converted by molar mass.

What was measured:
[1] = test system: E. coli des Stammes ATCC 11 775; assay: ED50 in intraperitoneal E. coli infection of mice; type: in vivo, Albino-Mäusen vom Stamm NMRI; details: Escherichia coli, ATCC11, sc; intraperitoneal E. coli ATCC 11 775 infection, NMRI albino mice, subcutaneous application; treated three times on day 1 (first 1 h after infection), twice daily on 2 further days
Protocol: Dabei wurde die ED50 der oben genannten Verbindungen 1 und 2 bei einer intraperitonealen E. coli-Infektion an Albino-Mäusen vom Stamm NMRI bestimmt. Am ersten Tag wurde dreimal behandelt (erstmals 1 h nach Infektion) und 2 weitere Tage zweimalig.

E.coli 12593/ 74 = assay: MIC (MHK), agar diffusion and serial dilution test; type: cell-based; details: Escherichia coli, read-out: MHK-Werte
Excerpt: (§1) Die Untersuchungen auf die antibakterielle Wirksamkeit in vitro wurde nach dem Agar-Diffusionstest und nach dem Reihenverdünnungstest in Anlehnung an die von P. Klein in "Bakteriologische Grundlagen der Chemotherapeutischen Laboratoriumspraxis", Springerverlag 1957, Seiten 53 bis 76 und 87 bis 109, beschriebenen Methodik durchgeführt.
(§2) Für D-α-[3-(3,4-Dihydro-3-methyl-2-hydroxy-4-oxo-5- pyrimidyl)-ureido/-p-hydroxybenzyl-penicillin-Natrium (Verbindung 1) und für Natrium-7-{D-α-[3-(3,4-Dihydro-2-hydroxy-3-methyl-4-oxo-5-pyrimidyl)-ureido]-p-hydroxyphenylacetamido}-3-[(1-methyl-tetrazol-5-yl)-thiomethyl]-ceph-3-em-4-carboxylat (Verbindung 2) wurden folgende MHK-Werte gegen einige gramnegative Keime gemessen: […]

E.coli ATCC 11775 = assay: MIC (MHK), agar diffusion and serial dilution test; type: cell-based; details: Escherichia coli, ATCC11775, read-out: MHK-Werte
Excerpt: as §1, §2

E.coli ATCC 9637 = assay: MIC (MHK), agar diffusion and serial dilution test; type: cell-based; details: Escherichia coli, ATCC9637, read-out: MHK-Werte
Excerpt: as §1, §2

Klebs. pneum. 272 = assay: MIC (MHK), agar diffusion and serial dilution test; type: cell-based; details: read-out: MHK-Werte
Excerpt: as §1, §2

Klebs. pneum. ATCC 10031 = assay: MIC (MHK), agar diffusion and serial dilution test; type: cell-based; details: read-out: MHK-Werte
Excerpt: as §1, §2

Proteus Vulgaris = assay: MIC (MHK), agar diffusion and serial dilution test; type: cell-based; details: read-out: MHK-Werte
Excerpt: as §1, §2

Proteus mirab. = assay: MIC (MHK), agar diffusion and serial dilution test; type: cell-based; details: read-out: MHK-Werte
Excerpt: as §1, §2

Pseud.aerug Hbg. = assay: MIC (MHK), agar diffusion and serial dilution test; type: cell-based; details: read-out: MHK-Werte
Excerpt: as §1, §2

Pseud.aerug. ATCC 10145 = assay: MIC (MHK), agar diffusion and serial dilution test; type: cell-based; details: read-out: MHK-Werte
Excerpt: as §1, §2

[2] = test system: Ser. marcescens ATCC 13880; assay: MIC (MHK), agar diffusion and serial dilution test; type: cell-based; details: Serratia marcescens, ATCC13880, read-out: MHK-Werte
Excerpt: as §1, §2

| SMILES | ED50 [1] [mg/kg] | MIC (E.coli 12593/ 74) [µg/mL] | MIC (E.coli ATCC 11775) [µg/mL] | MIC (E.coli ATCC 9637) [µg/mL] | MIC (Klebs. pneum. 272) [µg/mL] | MIC (Klebs. pneum. ATCC 10031) [µg/mL] | MIC (Proteus Vulgaris) [µg/mL] | MIC (Proteus mirab.) [µg/mL] | MIC (Pseud.aerug Hbg.) [µg/mL] | MIC (Pseud.aerug. ATCC 10145) [µg/mL] | MIC [2] [µg/mL] |
| --- | --- | --- | --- | --- | --- | --- | --- | --- | --- | --- | --- |
| Cn1nnnc1SCC1=C(C(=O)[O-])N2C(=O)C(NC(=O)[C@H](NC(=O)Nc3cnc(O)n(C)c3=O)c3ccc(O)cc3)[C@H]2SC1.[Na+] (stereo partly drawn) [Verbindung 2, Natrium-7-{D-α-[3-(3,4-Dihydro-2-hydroxy-3-methyl-4-oxo-5-pyrimidyl)-ureido]-p-hydroxyphenylacetamido}-3-[(1-methyl-tetrazol-5-yl)-thiomethyl]-ceph-3-em-4-carboxylat] | 3.3 | – | – | – | – | – | – | – | – | – | – |
| Cn1nnnc1SCC1=C(C(=O)O)N2C(=O)[C@@H](NC(=O)[C@H](NC(=O)Nc3cnc(O)n(C)c3=O)c3ccc(O)cc3)[C@H]2SC1 [Beispiel 2] | – | 5 (≈ 7.76 µM) | 1.25 (≈ 1.94 µM) | 1.25 (≈ 1.94 µM) | 2.5 (≈ 3.88 µM) | 1.25 (≈ 1.94 µM) | 10 (≈ 15.5 µM) | 1.25 (≈ 1.94 µM) | 20 (≈ 31 µM) | 20 to 40 (≈ 31 to 62 µM) | 10 (≈ 15.5 µM) |
| Cn1c(O)ncc(NC(=O)N[C@@H](C(=O)N[C@@H]2C(=O)N3[C@@H]2SC(C)(C)[C@@H]3C(=O)O)c2ccc(O)cc2)c1=O [Verbindung 1] | 7 | > 80 | 2.5 (≈ 4.69 µM) | 2.5 (≈ 4.69 µM) | 40 to 80 (≈ 75.1 to 150 µM) | 40 to 80 (≈ 75.1 to 150 µM) | 10 (≈ 18.8 µM) | 1.25 (≈ 2.35 µM) | 5 (≈ 9.39 µM) | 5 (≈ 9.39 µM) | 2.5 (≈ 4.69 µM) |
